Assay results as given in US20080096990A1, “Flame Retardant Polystyrene Foam Compositions” (priority 2004, published 2008).

Test: Solubility of flame retardant in styrene
Format: physicochemical

Solubility (at 40° C.) [wt %] | Structure (SMILES) | Solubility (at 25° C.) [wt %]
 | CN1C(=O)C2CC(Br)C(Br)CC2C1=O (stereo not drawn) [III] | >5
 | O=C1C2C3CC(C(Br)C3Br)C2C(=O)N1CCN1C(=O)C2C3CC(C(Br)C3Br)C2C1=O (stereo not drawn) [BN-451, reference compound] | <0.1
>1 | O=C1NC(=O)C2CC(Br)C(Br)CC12 (stereo not drawn) [II] | 
